The values below come from patent US4764591A, “Des-19-leucine, 20-glutamine, 21-threonine, 22-tyrosine-calcitonin” (Rorer Pharmaceutical Corporation, priority 1987, dated 1988).

Positions of bridges follow the written chain, without caps; N, C: chain ends. Residues, ends and D or L forms follow the SMILES beside them.

The test system of assay [1] is serum calcium concentration.
Protocol: Biological Assay of Calcitonin Analogs in Vivo
Rats were divided into four groups of seven animals, and each group was assigned at random to a dose of standard or test solution. Low and high doses were chosen from the linear portion of the dose-response curve. For the salmon calcitonin standard, the values were 0.7 and 2.1 ng. peptide/100 g. body weight (BW). This dose approximates 3 and 9 MU/100 g. BW. Peptides were given by subcutaneous injection (0.2 ml/100 g. BW) and blood was withdrawn 1 hour later for serum calcium determination. Sera are processed and analyzed within two hours of collection. Results were analyzed within two hours of collection.
For assay [2] the following is noted: literature values; cited from earlier work.

Take `CC(C)C[C@H](NC(=O)[C@H](CCCCN)NC(=O)CNC(=O)[C@H](CC(C)C)NC(=O)[C@@H](NC(=O)[C@@H]1CSSC[C@H](N)C(=O)N[C@@H](CO)C(=O)N[C@@H](CC(N)=O)C(=O)N[C@@H](CC(C)C)C(=O)N[C@@H](CO)C(=O)N[C@@H]([C@@H](C)O)C(=O)N1)C(C)C)C(=O)N[C@@H](CO)C(=O)N[C@@H](CCC(N)=O)C(=O)N[C@@H](CCC(=O)O)C(=O)N[C@@H](CC(C)C)C(=O)N[C@@H](Cc1c[nH]cn1)C(=O)N[C@@H](CCCCN)C(=O)N[C@@H](CC(C)C)C(=O)N[C@@H](CCC(N)=O)C(=O)N[C@H](C(=O)N[C@@H](Cc1ccc(O)cc1)C(=O)N1CCC[C@H]1C(=O)N[C@@H](CCCNC(=N)N)C(=O)N[C@H](C(=O)N[C@@H](CC(N)=O)C(=O)N[C@H](C(=O)NCC(=O)N[C@@H](CO)C(=O)NCC(=O)N[C@H](C(=O)N1CCC[C@H]1C(N)=O)[C@@H](C)O)[C@@H](C)O)[C@@H](C)O)[C@@H](C)O` [standard salmon calcitonin, salmon calcitonin]: the “potency content of the standard, independently determined” value in assay [1] (standard salmon calcitonin used in the assay, independently determined) was “greater than 4,000 IU/mg”.

For “eel calcitonin [synthetic eel calcitonin]”, the hypocalcemic potency entry in assay [2] was “around 4300 IU/mg”. As to “(1,7-alpha-L-amino-suberic acid) eel calcitonin”, the hypocalcemic potency result in assay [2] was “about 3400 IU/mg”. For `CC(C)C[C@H](NC(=O)[C@H](CCCCN)NC(=O)CNC(=O)[C@H](CC(C)C)NC(=O)[C@@H](NC(=O)[C@@H]1CSSC[C@H](N)C(=O)N[C@@H](CO)C(=O)N[C@@H](CC(N)=O)C(=O)N[C@@H](CC(C)C)C(=O)N[C@@H](CO)C(=O)N[C@@H]([C@@H](C)O)C(=O)N1)C(C)C)C(=O)N[C@@H](CO)C(=O)N[C@@H](CCC(N)=O)C(=O)N[C@@H](CCC(=O)O)C(=O)N[C@@H](CC(C)C)C(=O)N[C@@H](Cc1c[nH]cn1)C(=O)N[C@@H](CCCCN)C(=O)N1CCC[C@H]1C(=O)N[C@@H](CCCNC(=N)N)C(=O)N[C@H](C(=O)N[C@@H](CC(N)=O)C(=O)N[C@H](C(=O)NCC(=O)N[C@@H](CO)C(=O)NCC(=O)N[C@H](C(=O)N1CCC[C@H]1C(N)=O)[C@@H](C)O)[C@@H](C)O)[C@@H](C)O` [des-Leu^19, Gln^20, Thr^21, Tyr^22 -SCT, des-19-leucine, 20-glutamine, 21-threonine, 22-tyrosine-salmon calcitonin] (H-CSNLSTCVLGKLSQELHKPRTNTGSGTP-NH2; disulfide 1-7), the biological potency in assay [1] (rat, in vivo, sc) was 6250 IU/mg.
